Assay: Solubility of bismaleimides in organic solvents (saturated solution, gravimetric)
Format: physicochemical
Details: in comparison to other aliphatic bismaleimides
Experimental: The solubility of compounds in the present invention is determined as follows: • 10 g of a sample are weighed into a 100 ml conical flask. 50 ml of a solvent are added to the flask and the mixture is stirred with magnetic bar for 1 h at 25° C. to assure the formation of a saturated solution. If the entire sample is dissolved, additional portion of the sample should be added and the mixture should be stirred further for 1 h. In the end, a portion of undissolved material should be clearly seen at the bottom of the flask. After that, the supematant is filtered through a folded filter. Some 15 g of the filtrate are weighed into a tared round-bottom flask, and the solvent is evaporated to dryness on a rotary evaporator at 90° C. under reduced pressure. Finally, the flask is dried in a vacuum drying cabinet at 120° C. for 2 h under reduced pressure, cooled down to room temperature in a desiccator and weighed.
The solubility value is then calculated as:
The solubility of the example and comparative examples was determined as follows: • 10 g of a sample were weighed into a 100 ml conical flask. 50 ml of a solvent were added to the flask and the mixture was stirred with magnetic bar for 1 h at 25° C. to assure the formation of a saturated solution. If the entire sample was dissolved, additional portion of the sample should be added and the mixture should be stirred further for 1 h. […]

CC1CC(C(CN2C(=O)C=CC2=O)CN2C(=O)C=CC2=O)CC(C)(C)C1 (stereo not shown) [2-(3,3,5-trimethylcyclohexyl)propane-1,3-bismaleimide]
Solubility in different organic solvents (in words): highly soluble

Reference: patent US20240351981A1, “NOVEL BISMALEIMIDE COMPOUNDS HAVING IMPROVED SOLUBILITY AND THEIR USE IN CURABLE COMPOSITIONS” (Evonik Operations GmbH, priority 2021, published 2024)
